Laboratory results as given in EP0882016B1, “ALKYLATED STYRENES AS PRODRUGS TO COX-2 INHIBITORS” (Merck Frosst Canada & Co., priority 1996, dated 1997).

Assays:
[1] = Rat plasma levels, per os pharmacokinetics in rats; type: in vivo, Male Sprague Dawley rats; details: maximum rat plasma concentration of the active COX-2 inhibitor (corresponding carbonyl compound) after 20 mg/kg oral dose of the indicated prodrug
Description: The animals are housed, fed and cared for according to the Guidelines of the Canadian Council on Animal Care.
Male Sprague Dawley rats (325-375 g) are fasted overnight prior to each PO blood level study.
The rats are placed in the restrainer one at a time and the box is firmly secured. The zero blood sample is obtained by nicking a small (1 mm or less) piece off the tip of the tail. The tail is then stroked with a firm but gentle motion from the top to the bottom to milk out the blood. Approximately 1 mL of blood is collected into a heparinized vacutainer tube.
Compounds are prepared as required, in a standard dosing volume of 10mL/kg, and administered orally by passing a 16 gauge, 3" gavaging needle into the stomach.
Subsequent bleeds are taken in the same manner as the zero bleed except that there is no need to nick the tail again. The tail is cleaned with a piece of gauze and milked/stroked as described above into the appropriately labelled tubes.
Immediately after sampling, blood is centrifuged, separated, put into clearly marked vials and stored in a freezer until analysed.
Typical time points for determination of rat blood levels after PO dosing are: 0, 15min, 30min, 1h, 2h, 4h, 6h
After the 4hr time point bleed, food is provided to the rats ad libitum. Water is provided at all times during the study.
The following vehicles may be used in PO rat blood level determinations:
Compounds for PO blood levels can be in suspension form. For better dissolution, the solution can be placed in a sonicator for approximately 5 minutes.
For analysis, aliquots are diluted with an equal volume of acetonitrile and centrifuged to remove protein precipitate. The supernatant is injected directly onto a C-18 HPLC column with UV detection. Quantitation is done relative to a clean blood sample spiked with a known quantity of drug. Bioavailability (F) is assessed by comparing area under the curve (AUC) i.v. versus p.o. F =(AUCpo)/(AUCiv)x(DOSEiv)/(DOSEpo)x 100% [formula] […]

[2] = system: Rat Paw Edema; test: Rat paw edema assay (carrageenan); type: in vivo, Male Sprague-Dawley rats; details: dose of prodrug, po, required to reduce edema formation by 50% as compared to the vehicle control
Procedure: Male Sprague-Dawley rats (150-200 g) are fasted overnight and are given, po, either vehicle (1% methocel or 5% Tween 80) or a test compound. One hr later, a line is drawn using a permanent marker at the level above the ankle in one hind paw to define the area of the paw to be monitored. The paw volume (V0) is measured using a plethysmometer (Ugo-Basile, Italy) based on the principle of water displacement. The animals are then injected subplantarly with 50 µl of 1% carrageenan solution in saline (FMC Corp, Maine) into the paw using an insulin syringe with a 25-gauge needle (i.e. 500 µg carrageenan per paw). Three hr later, the paw volume (V3) is measured and the increases in paw volume (V3 - VO) are calculated. The animals are sacrificed by CO2 asphyxiation and the absence or presence of stomach lesions scored. Data is compared with the vehicle-control values and percent inhibition calculated. All treatment groups are coded to eliminate observer bias.
Compounds of the present invention are prodrugs of inhibitors of COX-2 and are thereby useful in the treatment of COX-2 mediated diseases as enumerated above. The extent of conversion of these compounds to the active COX-2 inhibitors may be seen in the representative results shown in Table III along with their antiinflammatory activity. The plasma levels indicated are the maximum rat plasma concentrations of the active COX-2 inhibitor observed when the rat was treated with a 20 mg/kg oral dose of the indicated prodrug. The ED50 values in the rat paw edema assay represent the dose of prodrug required to reduce edema formation by 50% as compared to the vehicle control.

Structure (SMILES)	Plasma Levels (µM)* [1] [µM]	Rat Paw Edema (ED50, mg/kg) [2] [mg/kg]
CC(C)(O)/C(=C(\CO)c1cccc(F)c1)c1ccc(S(C)(=O)=O)cc1 [Example 1, 2-(3-Fluorophenyl)-4-methyl-3-(4-(methylsulfonyl)-phenyl)-2-(Z)-penten-1,4-diol]	3.5	10
COC(C)(C)/C(=C(\C(=O)N(C)C)c1cccc(F)c1)c1ccc(S(C)(=O)=O)cc1 [Example 4, N,N-Dimethyl-2-(3-fluorophenyl)-4-methoxy-4-methyl-3-(4-(methylsulfonyl)phenyl)-2-(Z)-pentenamide]	10	1.6
COC(=O)/C(=C(/c1ccc(S(C)(=O)=O)cc1)C(C)(C)OC)c1cccc(F)c1 [Example 6, Methyl 2-(3-fluorophenyl)-4-methoxy-4-methyl-3-(4-(methylsulfonyl)phenyl)-2-(Z)-pentenoate]	6	2.1
